According to paper PMC11993918, “Flipped binding modes for the same agonist in closely related neuropeptide-gated ion channels” (Biophysical Journal, 2025):
“And” between values parts separate entries of the source, which are not always exact repeats. Equal entries are not always repeated. “Also recorded” adds a separate entry of the source. Where two headings read alike, the source gives them in different places. No end group written: not given here.

Assays:
[1] = target: Malacoceros fuliginosus FaNaC1, wild type (Malacoceros fuliginosus)
A. kurodai FaNaC = assay: Two-electrode voltage clamp of oocytes expressing A. kurodai FaNaC; assay type: cell-based, Aplysia kurodai; settings: for peptide potency/activity compared to FMRFa (in words): Fig. 2 A
Excerpt: (§1) A. kurodai FaNaC (NCBI GenBank: AB206707.1) and M. fuliginosus FaNaC1 (NCBI GenBank: ON156825.1) cDNAs in tailored pSP64 plasmid vectors including Xenopus laevis UTRs and poly(A) sequences have been described at length previously ([9],[16]). A. kurodai FaNaC F188Y, F188tag (amber stop codon), F453Y, and F453tag mutants were generated by site-directed mutagenesis as detailed in ([17]) with custom primers (Merck) and PCR with Phusion High-Fidelity DNA polymerase (Thermo Fisher). All coding sequences were confirmed by Sanger sequencing (Genewiz). Plasmid DNA was linearized by digesting with EcoRI (Thermo Fisher) and purified with the DNA Clean & Concentrator Kit (Zymo). mRNA was then transcribed using the mMESSAGE mMACHINE SP6 Transcription Kit (Thermo Fisher) and purified with the RNeasy Mini Kit (Qiagen).
(§2) X. laevis frog oocytes were shipped from Ecocyte Bioscience, Germany, and stored at 18°C in 50% Leibovitz’s L-15 medium (Gibco) supplemented with additional 0.25 mg/mL gentamicin, 1 mM L-glutamine, and 15 mM HEPES, pH 7.6.
(§3) For wild-type (WT) and conventional mutant channels, oocytes were injected with 40 nL of 120 ng/μL FaNaC mRNA via glass micropipettes backfilled with mineral oil, using a Nanoliter2010 injector (World Precision Instruments). For the expression of noncanonical mutant channels, aminoacylated tRNA was first resuspended in 2 μL of water and deprotected by 5 min in UV light via a fan-cooled coil of 365-nm realUV LED strip lights (Waveform Lighting). Deprotected aminoacylated tRNA was then mixed 2:1 with 700 ng/μL UAG mutant FaNaC mRNA, and 40 nL of this mix was injected into oocytes.
(§4) Two-electrode voltage clamp experiments were performed 24–36 h after injection. The oocyte was placed in an RC-3Z bath (Warner Instruments) and perfused continuously with ND96 solution (NaCl 96 mM, KCl 2 mM, CaCl2 1.8 mM, MgCl2 1 mM, HEPES 5 mM, pH 7.5 with NaOH). In experiments without Ca^2+, CaCl2 was replaced with BaCl2, and oocytes were injected with 40 nL of water or 25 mM EGTA 10–45 min before recording. In experiments probing increased Ca^2+ concentrations, extracellular solutions contained NaCl 140 mM, HEPES 10 mM, CaCl2 1 mM, pH 7.5 with NaOH; or NMDG-Cl 126.5 mM, HEPES 10 mM, CaCl2 10 mM, pH 7.5 with NaOH (leaving a small amount of Na^+ in the final solution), based on previous work ([21]). ND96 (or the latter solutions) alone or containing peptides was rapidly exchanged via a VCS-8 pinch-valve control perfusion system (Warner Instruments). […] Oocytes were clamped at −80 mV for all experiments with an Oocyte Clamp OC-725D amplifier (Warner Instruments) and Axon Digidata 1550B digitizer ([…]). Data were recorded at 1000 Hz and filtered at 100–200 Hz. 50 Hz noise was eliminated with a Hum Bug (Digitimer). In measuring reversal potentials in normal and high Ca^2+ solutions, 150 ms voltage ramps from −80 mV to 80 mV were applied continuously, before and during FMRFa application. The resulting “current ramp” in the absence of FMRFa was subtracted from that during peak FMRFa-gated current to plot the FMRFa-induced current-voltage relationship.
(§5) Current amplitude was measured in Clampfit 11.1 (Molecular Devices), and subsequent data analyses were performed in Prism v9 (GraphPad Software). For peptide concentration-response data, peak current amplitude was normalized to maximum, plotted against peptide concentration, and fitted with four-parameter nonlinear regression (Prism v9) for each oocyte. These were averaged to give the reported means ± SE in the main text. For display in figures, a single fit to the average normalized responses (±SE) is shown. […] Therefore, in most M. fuliginosus/LMRFa experiments only, just two LMRFa applications were used: one test concentration and one 10 μM for normalization. This yielded n = 3 oocytes for responses to different concentrations, against which a single curve was fitted and half-maximal effective concentration (EC50) was calculated. […]

M. fuliginosus FaNaC1 = assay: Two-electrode voltage clamp of oocytes expressing M. fuliginosus FaNaC1; assay type: cell-based, Malacoceros fuliginosus; settings: for peptide potency/activity compared to FMRFa (in words): Fig. 2 A
Excerpt: as §1, §2, §3, §4, §5

clade 1 FaNaCs = settings: cited from earlier work; for sensitivity to native peptides (in words): extant clade 1 FaNaCs ref 9,27
A. kurodai FaNaC F188Phe = assay: Two-electrode voltage clamp, nonsense suppression mutant F188Phe; assay type: cell-based, Aplysia kurodai
Excerpt: as §1
(§6) Noncanonical amino acids were incorporated into positions F188 and F453 of A. kurodai FaNaC via a nonsense suppression approach using an amber stop codon (TAG/UAG) and modified Tetrahymena thermophila Gln73 tRNA (THG73) ([19],[20]). […]
(§7) Two-electrode voltage clamp experiments were performed 24–36 h after injection. […] Data were recorded at 1000 Hz and filtered at 100–200 Hz. […]
(§8) Current amplitude was measured in Clampfit 11.1 (Molecular Devices), and subsequent data analyses were performed in Prism v9 (GraphPad Software). […]

A. kurodai FaNaC F188Y = assay: Two-electrode voltage clamp, conventional mutant F188Y; assay type: cell-based, Aplysia kurodai
Excerpt: as §1, with “(Qiagen). […]” for “(Qiagen).”
as §7
(§9) Current amplitude was measured in Clampfit 11.1 (Molecular Devices), and subsequent data analyses were performed in Prism v9 (GraphPad Software). […] This yielded n = 3 oocytes for responses to different concentrations, against which a single curve was fitted and half-maximal effective concentration (EC50) was calculated. […]

A. kurodai FaNaC F188Cha = assay: Two-electrode voltage clamp, nonsense suppression mutant F188Cha; assay type: cell-based, Aplysia kurodai; settings: concentrations up to 100 μM
Excerpt: as §1, §6, §7, §8

[2] = system: A. kurodai FaNaC F188hPhe; assay: Two-electrode voltage clamp, nonsense suppression mutant F188hPhe; assay type: cell-based, Aplysia kurodai; settings: concentrations up to 100 μM
Excerpt: as §1, §6, §7, §8

A. kurodai FaNaC F453Phe = assay: Two-electrode voltage clamp, nonsense suppression mutant F453Phe; assay type: cell-based, Aplysia kurodai
Excerpt: as §1, §6, §7, §8

A. kurodai FaNaC F453Y = assay: Two-electrode voltage clamp, conventional mutant F453Y; assay type: cell-based, Aplysia kurodai
Excerpt: as §1, with “(Qiagen). […]” for “(Qiagen).”
as §7, §9

[3] = system: A. kurodai FaNaC F453hPhe; assay: Two-electrode voltage clamp, nonsense suppression mutant F453hPhe; assay type: cell-based, Aplysia kurodai
Excerpt: as §1, §6, §7, §8

A. kurodai FaNaC F453Cha = assay: Two-electrode voltage clamp, nonsense suppression mutant F453Cha; assay type: cell-based, Aplysia kurodai
Excerpt: as §1, §6, §7, §8

[4] = system: M. fuliginosus FaNaC1 position α3-F129 UAG mutant; assay: Two-electrode voltage clamp, nonsense suppression at F129 (UAG mutant mRNA and phenylalaninylated tRNA); assay type: cell-based, Malacoceros fuliginosus; settings: UAG mutant mRNA and phenylalaninylated tRNA (not shown)
[5] = system: M. fuliginosus FaNaC1 F129 A/L/Q mutants; parameters: method as in PMID 38337033; settings: conventional F129 A/L/Q mutants ref 15; cited from earlier work
Helix aspersa FaNaC = system: Helix aspersa FaNaC; parameters: method as in PMID 9343851; settings: stated as shared by A. kurodai FaNaC and H. aspersa FaNaC ref 27; cited from earlier work
clade 2 FaNaCs = settings: extant clade 2 FaNaCs ref 9,23,27; cited from earlier work
[6] = target: Aplysia kurodai FMRFa-gated sodium channel (FaNaC), wild type (Aplysia kurodai)
[7] = target: Malacoceros fuliginosus FaNaC1, wild type (Malacoceros fuliginosus); remark: listed apart in the source
[8] = X. laevis oocytes, -80 mV, mean ± SE

(F3-Phe)MRFa (peptide)
EC50 of current activation, two-electrode voltage clamp, X. laevis oocytes [1]: 0.011 µM

AMRFa: synthetic FMRFa analog, F1 replaced with smaller hydrophobic side chain (A) (AMRF-NH2)
peptide potency/activity compared to FMRFa (in words) (A. kurodai FaNaC; X. laevis oocytes): activated no current | peptide potency/activity compared to FMRFa (in words) (M. fuliginosus FaNaC1; X. laevis oocytes): similarly to FMRFa

Ac-FMRFa: FMRFa with N-terminal acetylation
peptide potency/activity compared to FMRFa (in words) (A. kurodai FaNaC; X. laevis oocytes): little effect | peptide potency/activity compared to FMRFa (in words) (M. fuliginosus FaNaC1; X. laevis oocytes): increased potency

FKRFa: FMRFa analog, M2 replaced with lysine (FKRF-NH2)
peptide potency/activity compared to FMRFa (in words) (A. kurodai FaNaC; X. laevis oocytes): no activity | peptide potency/activity compared to FMRFa (in words) (M. fuliginosus FaNaC1; X. laevis oocytes): no significant effect on potency

FMKFa: FMRFa analog, R3 replaced with lysine; also a native peptide (FMKF-NH2)
sensitivity to native peptides (in words) (clade 1 FaNaCs): sensitive | activation by peptide (in words) (clade 1 FaNaCs; various mollusk FaNaCs ref 7,9): activated

FMQFa: FMRFa analog, R3 replaced with glutamine (FMQF-NH2)
currents at 100 μM peptide (A. kurodai FaNaC; 100 μM): no currents | peptide potency/activity compared to FMRFa (in words) (A. kurodai FaNaC; X. laevis oocytes): total reduction in potency

FMRAa: FMRFa analog, F4 replaced with alanine (FMRA-NH2)
peptide potency/activity compared to FMRFa (in words) (M. fuliginosus FaNaC1; X. laevis oocytes): abolished peptide potency completely

FMRF-OMe: FMRF with C-terminal O-methylester
peptide potency/activity compared to FMRFa (in words) (M. fuliginosus FaNaC1; X. laevis oocytes): drastically reduced activation

FMRVa: FMRFa analog, F4 replaced with valine (FMRV-NH2)
peptide potency/activity compared to FMRFa (in words) (M. fuliginosus FaNaC1; X. laevis oocytes): did not significantly affect peptide potency

FVRFa: FMRFa analog, M2 replaced with valine (FVRF-NH2)
peptide potency/activity compared to FMRFa (in words) (A. kurodai FaNaC; X. laevis oocytes): significantly less potent than FMRFa | peptide potency/activity compared to FMRFa (in words) (M. fuliginosus FaNaC1; X. laevis oocytes): no significant effect on potency

H-Phe-Met-Arg-Phe-NH2 [FMRFa]
EC50 (A. kurodai FaNaC; [8]): 5.48 µM and 5.5 µM | EC50 (M. fuliginosus FaNaC1; [8]): 0.35 ± 0.06 µM | FMRFa activation/potency (in words) (A. kurodai FaNaC F188Phe): decreased FMRFa potency; also recorded: activated by FMRFa at micromolar concentrations | FMRFa activation (in words) (A. kurodai FaNaC F188Y): activated by FMRFa at micromolar concentrations | response to FMRFa (in words) (A. kurodai FaNaC F188Cha): little or no response | response to FMRFa (in words) [2]: little or no response | FMRFa potency compared to regular WT (in words) (A. kurodai FaNaC F453Phe): decreased FMRFa potency | FMRFa sensitivity (in words) (A. kurodai FaNaC F453Y): abolished FMRFa sensitivity | FMRFa sensitivity (in words) [3]: relatively little effect on FMRFa sensitivity | FMRFa sensitivity (in words) (A. kurodai FaNaC F453Cha): relatively little effect on FMRFa sensitivity | FMRFa-gated currents (in words) [4]: no FMRFa-gated currents | sensitivity to FMRFa (in words) [5]: reduced sensitivity to FMRFa | EC50 (Helix aspersa FaNaC): 3 to 5 µM | sensitivity to native peptides (in words) (clade 1 FaNaCs): sensitive | binding of native peptides (in words) (clade 2 FaNaCs): bind

LMRFa: synthetic FMRFa analog, F1 replaced with smaller hydrophobic side chain (L) (LMRF-NH2)
peptide potency/activity compared to FMRFa (in words) (A. kurodai FaNaC; X. laevis oocytes): activated no current | deactivation after peptide application (M. fuliginosus FaNaC1): especially slow | peptide potency/activity compared to FMRFa (in words) (M. fuliginosus FaNaC1; X. laevis oocytes): similarly to FMRFa

SGFMRFa: FMRFa with N-terminal serine-glycine insertion (SGFMRF-NH2)
peptide potency/activity compared to FMRFa (in words) (A. kurodai FaNaC; X. laevis oocytes): abolished activity | peptide potency/activity compared to FMRFa (in words) (M. fuliginosus FaNaC1; X. laevis oocytes): no effect

H-FMRF-NH2 [H-Phe-Met-Arg-Phe-NH2 (FMRFamide)]
EC50 of current activation, two-electrode voltage clamp, X. laevis oocytes [6]: 5.48 µM | EC50 of current activation, two-electrode voltage clamp, X. laevis oocytes [7]: 0.35 µM
